These are literature values, as cited in US10258598B2, “Compounds for use in the prevention or treatment of cancer” ([…], priority 2014, dated 2019).

Molecules are shown by their SMILES. Where a name gives a salt, the structure may show the parent alone.

The subject of the series is norepinephrine and dopamine stores in catecholaminergic neurons in the brain stem. The settings on record: 1 mg/kg s.c.; cited from earlier work.

As to `COc1cc2c(cc1OC)C1CC(=O)C(CC(C)C)CN1CC2` (stereo not shown) [Tetrabenazine, Tetrabenazine HCl], the “depletion of norepinephrine and dopamine from their stores” value is “at least 90%”.
